US20260305608A1, “MIXTURE COMBINATIONS FOR CROP PROTECTION” (ADAMA MAKHTESHIM LTD., priority 2023, published 2026)

What was measured:
B. tabaci = assay: Synergistic activity against B. tabaci, 3 days after nymph exposition (% control; Colby); type: in vivo, Bemisia tabaci
Procedure: (§1) A mixture combination were prepared by thoroughly mixing Tau-fluvalinate (weight %) with a crop protection chemical compound such as Flupyrimin, Isocycloseram, Methoxyfenozide and Garlic extract (weight %).
(§2) Different concentrations of each of the active ingredients may be applied to different species of insects. The percent controls are determined sometime after treatment.
(§3) A synergistic effect exists whenever the action of a combination of active ingredients is greater than the sum of the action of each of the ingredients alone. Therefore, a synergistic combination is a combination of active ingredients having an action that is greater than the sum of the action of each active ingredient alone, and a synergistically effective amount is an effective amount of a synergistic combination.
(§4) Colby's method is used to determine if synergy exists for a combination of active ingredients. According to Colby, the expected action (E) of active ingredients A+B is:
(§5) E=A+B−(AB/100) • where E=expected efficacy, A and B=the efficacy of two active ingredients A and B at a given dose.
(§6) When the percentage of control observed (O) for the combination is greater than the expected (E) percentage, there is a synergistic effect. The synergism ratio (R) is calculated as the ratio between the […].
(§7) The insecticidal compounds A (Tau fluvalinate) and B (mix partner) are formulated as equivalent compositions to eliminate the effects of differing formulation inerts on biological activity. Efficacy of the insecticidal compositions is evaluated with reference to a scale of 0% to 100% in comparison with untreated control plots. 0 means no damage and 100 means complete destruction of the harmful pests.
(§8) The experiments were conducted by applying either by synthesis/extraction or commercially available formulations of Tau fluvalinate and other mixture partners, alone or with their tank-mixed compositions with the same weight ratio. The compositions were diluted with water or some other suitable solvents to the stated concentration of the active compounds.
(§9) Each formulation with active ingredient is diluted with water or other suitable solvent(s) to the ppm (parts per million) level and biological efficacy trials on pests are conducted.

S. littoralis [1] = assay: Synergistic activity against S. littoralis, 2 days after larvae exposition (% control; Colby); type: in vivo, Spodoptera littoralis
Procedure: as §1, §2, §3, §4, §5, §6, §7, §8, §9

S. littoralis [2] = assay: Synergistic activity against S. littoralis, 3 days after larvae exposition (% control; Colby); type: in vivo, Spodoptera littoralis
Procedure: as §1, §2, §3, §4, §5, §6, §7, §8, §9

Row | SMILES | Observed % control (O) (B. tabaci; Table 4A, 0.2 ppm) [%] | Observed % control (O) (S. littoralis [1]; Table 1B, 10 ppm) [%] | Observed % control (O) (S. littoralis [1]; Table 4B, 8 ppm) [%] | Observed % control (O) (S. littoralis [2]; Table 3, 2 ppm) [%] | other results
1 | CC(C)C(Nc1ccc(C(F)(F)F)cc1Cl)C(=O)OC(C#N)c1cccc(Oc2ccccc2)c1 (mixture of isomers) [Tau- Fluvalinate, (RS)-α-Cyano-3-phenoxybenzyl N-(2-chloro-α,α,α-trifluoro-p-tolyl)-D-valinate] | 10.4 | 43 | 45 | 22.5 | Observed % control (O) (B. tabaci; Table 1A, 0.1 ppm): 14%; Observed % control (O) (B. tabaci; Table 2, 20 ppm): 28.1%; Observed % control (O) (S. littoralis [1]; Table 4B, 16 ppm): 62.5%; Observed % control (O) (S. littoralis [2]; Table 3, 0.2 ppm): 2.5%; Observed % control (O) (S. littoralis [2]; Table 3, 10 ppm): 67.5%
2 | O=C(/N=c1\ccccn1Cc1ccc(Cl)nc1)C(F)(F)F [Flupyrimin] | – | 0 | – | – | Observed % control (O) (S. littoralis [1]; Table 1B, 1 ppm): 0%; Observed % control (O) (S. littoralis [1]; Table 1B, 100 ppm): 18%
3 | CCN1OC[C@@H](NC(=O)c2ccc(C3=NO[C@@](c4cc(Cl)c(F)c(Cl)c4)(C(F)(F)F)C3)cc2C)C1=O [Isocycloseram] | 25.5 | – | 12.2 | – | –
4 | COc1cccc(C(=O)NN(C(=O)c2cc(C)cc(C)c2)C(C)(C)C)c1C [Methoxyfenozide] | – | – | – | 70 | Observed % control (O) (S. littoralis [2]; Table 3, 1 ppm): 52.5%
